30 compounds from patent EP0745597A2, “Novel melatonergic indanyl piperazines or homopiperazines” (BRISTOL-MYERS SQUIBB COMPANY, priority 1995, dated 1996) can be followed below.

“And” between values parts separate entries of the source, which are not always exact repeats. Equal values may be shown once.

This experiment has as its target T1, human ML1B receptor (Homo sapiens, UniProt P49286).
T1 construct: host or cells: NIH 3T3 cells, stably transfected; membrane homogenates
T1 sequence (P49286 1-362): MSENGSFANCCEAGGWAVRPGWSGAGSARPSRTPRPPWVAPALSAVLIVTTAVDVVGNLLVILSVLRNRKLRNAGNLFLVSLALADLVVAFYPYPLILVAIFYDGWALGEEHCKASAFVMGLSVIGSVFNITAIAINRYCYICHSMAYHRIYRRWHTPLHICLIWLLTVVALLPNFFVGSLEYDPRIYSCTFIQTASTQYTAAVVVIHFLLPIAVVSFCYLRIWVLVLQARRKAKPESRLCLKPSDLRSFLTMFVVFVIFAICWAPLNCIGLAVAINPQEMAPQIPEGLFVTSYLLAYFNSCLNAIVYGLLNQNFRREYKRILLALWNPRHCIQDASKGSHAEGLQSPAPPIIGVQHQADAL
Description: Measurement of binding to melatonergic receptors (2-[125I]-iodomelatonin, membranes of transfected NIH 3T3 cells). As to conditions: 2-[125I]-Iodomelatonin 200 pM, 37 °C for 1 hour, NIH 3T3 cells stably transfected with the human ML1B receptor; read-out: Melatonin Binding. As to the method:
The melatonergic binding affinities of various compounds of Formula I were determined by the method of Reppert, S. M., Weaver, D. R., and Ebisawa, R. (Neuron, Volume 13, 1177-1185, 1994). The assays were incubated at 37 °C for 1 hour, and the reaction was terminated by filtration. The filters were washed with wash buffer. […] The reagents, membrane and other techniques used in the melatonergic binding assays are more fully described below: • 1. Reagents: • (a) 50 mM Tris buffer containing 12.5 mM MgCl2, and 2mM EDTA, pH 7.4 at 37 °C. • (b) Wash buffer: 20 mM Tris base containing 2 mM MgCl2. pH 7.4 at room temperature. • (c) Melatonin (10^-5 M final concentration). • (d) 2-[^125I]-Iodomelatonin, 200 pM final concentration Source: NEN • 2. Membrane preparation: NIH 3T3 cells stably transfected with the human ML1B receptor were obtained from S.M. Reppert and maintained. Cells were pelleted when confluent. The supernatant was discarded and the pellets frozen. For preparing membrane homogenates, the pellets are thawed on ice and resuspended in TME buffer, Tris base, MgCl2, EDTA (pH 7.4 at 37 °C ), supplemented with aprotinin, leupeptin, and […]. The cells were then homogenized and centrifuged. The resulting pellet was resuspended with a Dounce homogenizer in TME and frozen. At assay, a small aliquot was thawed on ice and resuspended in TME buffer. […] These compounds are considered active.

Turning to `C=CC(=O)N1CCN(C2CCc3ccc(OC)cc32)CC1` (stereo not drawn) [1-(Ethenylcarbonyl)-4-(6-methoxy-indan-1-yl)piperazine], the IC50 fell in the range of 10 to 100 nM.
As to `CCOC(=O)N1CCN(C2CCc3ccc(OC)cc32)CC1` (stereo not drawn) [1-(Ethoxycarbonyl)-4-(6-methoxy-indan-1-yl)piperazine], the IC50 is 100 to 250 nM.
The result for `COCC(=O)N1CCN(C2CCc3ccc(OC)cc32)CC1` (stereo not drawn) [1-(Methoxyacetyl)-4-(6-methoxy-indan-1-yl)piperazine] reads 10 to 100 nM; that for `COc1ccc2c(c1)C(N1CCN(C(C)=O)CC1)CC2` (stereo not drawn) [1-Acetyl-4-(6-methoxy-indan-1-yl)piperazine], 100 to 250 nM; that for `COc1ccc2c(c1)C(N1CCN(C(C)=O)CC1)CCC2` (stereo not drawn) [1-Acetyl-4-(7-methoxy-tetralin-1-yl)piperazine], 10 to 100 nM.
In the case of `CCCC(=O)N1CCN(C2CCc3ccc(OC)cc32)CC1` (stereo not drawn) [1-Butanoyl-4-(6-methoxy-indan-1-yl)piperazine], the IC50 is less than 10 nM.
The value for `C=C(C)C(=O)N1CCN(C2CCc3ccc(OC)cc32)CC1` (stereo not drawn) [1-[(1-Methyl-ethenyl)carbonyl]-4-(6-methoxy-indan-1-yl)piperazine] was less than 10 nM; that for `COc1ccc2c(c1)C(N1CCN(C(=O)c3ccco3)CC1)CC2` (stereo not drawn) [1-[(2-Furanyl)carbonyl]-4-(6-methoxy-indan-1-yl)piperazine] was less than 10 nM.
Take `COc1cc2c(cc1F)CCC2N1CCN(C(=O)C(C)C)CC1` (stereo not drawn) [4-(5-Fluoro-6-methoxy-indan-1-yl)-1-(2-methylpropanoyl)piperazine]: the IC50 was in the range of 10 to 100 nM.
Take `CCc1ccc2c(c1)C(N1CCN(C(=O)C(C)C)CC1)CC2` (stereo not drawn) [4-(6-Ethyl-indan-1-yl)-1-(2-methylpropanoyl)piperazine]: the IC50 was 100 to 250 nM.
The result for `CCC(C)C(=O)N1CCN(C2CCc3ccc(OC)cc32)CC1` (stereo not drawn) [4-(6-Methoxy-indan-1-yl)-1-(2-methyl-butanoyl)piperazine] reads 10 to 100 nM.
As to `COc1ccc2c(c1)C(N1CCCN(C(=O)C(C)C)CC1)CC2` (stereo not drawn) [4-(6-Methoxy-indan-1-yl)-1-(2-methyl-propanoyl)homopiperazine], the IC50 fell in the range of 10 to 100 nM.
The result for `COc1ccc2c(c1)C(N1CCN(C(=O)C(C)C)CC1)CC2` (stereo not drawn) [4-(6-Methoxy-indan-1-yl)-1-(2-methyl-propanoyl)piperazine] reads < 10 nM and 100 to 250 nM; that for `COc1ccc2c(c1)C(N1CCN(C(=O)c3cccs3)CC1)CC2` (stereo not drawn) [4-(6-Methoxy-indan-1-yl)-1-[(2-thienyl)carbonyl]piperazine], less than 10 nM; that for `CCC(=O)N1CCN(C2CCc3ccc(OC)cc32)CC1` (stereo not drawn) [4-(6-Methoxy-indan-1-yl)-1-propanoylpiperazine], 10 to 100 nM.
For the compound `CC(=O)NCCc1c(Cc2ccccc2)[nH]c2ccccc12` [Luzindole, reference compound], the IC50 lay in the range of 100 to 250 nM.
With `COc1ccc2c(c1)C(N1CCN(C(=O)N(C)C)CC1)CC2` (stereo not drawn) [N,N-Dimethyl-4-(6-methoxy-indan-1-yl)piperazine-1-carboxamide], the IC50 fell in the range of 10 to 100 nM.
Consider `COc1ccc2c(c1)C(N1CCN(C(=O)NC(C)C)CC1)CC2` (stereo not drawn) [N-(1-Methylethyl)-4-(6-methoxy-indan-1-yl)piperazine-1-carboxamide], for which the IC50 was 10 to 100 nM.
Turning to `CCCNC(=O)N1CCN(C2CCc3ccc(OC)cc32)CC1` (stereo not drawn) [N-(n-Propyl)-4-(6-methoxy-indan-1-yl)piperazine-1-carboxamide], the IC50 was in the range of 10 to 100 nM.
Regarding `COc1ccc2c(c1)C(N1CCN(C(=O)NC3CC3)CC1)CC2` (stereo not drawn) [N-Cyclopropyl-4-(6-methoxy-indan-1-yl)piperazine-1-carboxamide], the IC50 was less than 10 nM.
The result for `CCNC(=O)N1CCN(C2CCc3cc(F)c(OC)cc32)CC1` (stereo not drawn) [N-Ethyl-4-(5-fluoro-6-methoxy-indan-1-yl)piperazine-1-carboxamide] reads 10 to 100 nM; that for `CCNC(=O)N1CCN(C2CCc3ccc(OCC)cc32)CC1` (stereo not drawn) [N-Ethyl-4-(6-ethoxy-indan-1-yl)piperazine-1-carboxamide], 10 to 100 nM; that for `CCNC(=O)N1CCCN(C2CCc3ccc(OC)cc32)CC1` (stereo not drawn) [N-Ethyl-4-(6-methoxy-indan-1-yl)homopiperazine-1-carboxamide], 10 to 100 nM.
The result for `CCNC(=O)N1CCN(C2CCc3ccc(OC)cc32)CC1` (stereo not drawn) [N-Ethyl-4-(6-methoxy-indan-1-yl)piperazine-1-carboxamide] reads 10 to 100 nM.
The result for `CCCCCCCCCOc1ccc2c(c1)C(N1CCN(C(=O)NCC)CC1)CC2` (stereo not drawn) [N-Ethyl-4-(6-nonyloxy-indan-1-yl)piperazine-1-carboxamide] reads 10 to 100 nM; that for `CCCOc1ccc2c(c1)C(N1CCN(C(=O)NCC)CC1)CC2` (stereo not drawn) [N-Ethyl-4-(6-propyloxy-indan-1-yl)piperazine-1-carboxamide], 10 to 100 nM; that for `CCNC(=O)N1CCN(C2CCCc3ccc(OC)cc32)CC1` (stereo not drawn) [N-Ethyl-4-(7-methoxy-tetralin-1-yl)piperazine-1-carboxamide], 100 to 250 nM.
With `CNC(=O)N1CCN(C2CCc3cc(F)c(OC)cc32)CC1` (stereo not drawn) [N-Methyl-4-(5-fluoro-6-methoxy-indan-1-yl)piperazine-1-carboxamide], the IC50 lay within 10 to 100 nM.
For the compound `CNC(=O)N1CCN(C2CCc3ccc(OC)cc32)CC1` (stereo not drawn) [N-Methyl-4-(6-methoxy-indan-1-yl)piperazine-1-carboxamide], the IC50 is less than 10 nM.
On to `CNC(=O)N1CCN(C2CCCc3ccc(OC)cc32)CC1` (stereo not drawn) [N-Methyl-4-(7-methoxy-tetralin-1-yl)piperazine-1-carboxamide], for which the IC50 lay in the range of 10 to 100 nM.
